Like-named read-outs stand apart in the source and are kept apart here.
Legend:
[1] = system: injured SH-SY5Y cells; assay: Protective effect against tert-butyl hydroperoxide-induced SH-SY5Y neurotoxicity cells (MTT assay); assay type: cell-based; details: for viability at 3.125 µM / viability at 6.25 µM / viability at 12.5 µM / viability at 25 µM / viability at 50 µM / Proliferation Rate (%): injured SH-SY5Y cells; for viability at 3.125 µM / viability at 6.25 µM / viability at 12.5 µM / viability at 25 µM / viability at 50 µM: read-out: Proliferation Rate (%); for EC50: tert-butyl hydroperoxide-induced SH-SY5Y neurotoxicity, read-out: EC50 for protecting injured SH-SY5Y cells;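 for Proliferation Rate (%): 0% equals CoCl2-injured cells and 100% equals NGF-treated cells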
Protocol: The protective effects of baicalein derivatives in vitro was evaluated against tert-butyl, hydroperoxide-induced, SH-SY5Y neurotoxicity cells using an MTT assay. In addition, their toxicity evaluation was tested on normal H9C2 cells. The resulting proliferation rates (%) at different concentrations, as well as their 50% effective concentrations (EC50) for protecting damaged SH-SY5Y cells of the baicalein amino acid derivatives, are summarized in Table 2.
(§1) The SH-SY5Y ([…]) and H9C2 ([…]) cell lines were obtained from the Chinese Academy of Medical Sciences and Peking Union Medical College. All of the cell lines were grown in dulbecco’s modified eagle medium (DMEM) with 10% (v/v) fetal bovine serum (FBS) and 1% (v/v) penicillin/streptomycin (Thermo Technologies, New York, NY, USA), under a humidified atmosphere containing 5% CO2 at 37 °C. The baicalein derivatives were dissolved in DMSO (Sigma, St. Louis, MO, USA) and added at various concentrations to the cell culture.
(§2) The protective effect of these compounds was evaluated on SH-SY5Y and H9C2 cell lines via the MTT method. The cells growing in the logarithmic phase were cultured in 96-well plates at a density 3 × 10^3 cells/well and incubated for 24 h. Then each well was treated with the required concentrations (50 µM concentrations, 25 µM concentrations, 12.5µM concentrations, 6.25 µM concentrations, and 3.125 µM concentrations) of baicalein derivatives, and incubated 36 h at 37 °C with 5% CO2. After that, the cells were induced by H2O2 (final concentration, […]) for 12 h. Control-differentiated cells were injected with new growth media at equal amounts. Before […] MTT solution (5 mg/mL) was added to each well, the cell culture fluid was discarded, and […] fresh cell culture fluid was added. The plate was incubated for a further 4 h at 37 °C. The cell supernatant medium was removed carefully, without disturbing the attached cells, and formazan crystals were solubilized by adding 150 μL DMSO into each well. The absorbance was measured at 490 nm with a plate reader (BIORAD 550 spectrophotometer, Bio-rad Life Science Development Ltd., Beijing, China). H2O2 was dissolved in DMEM medium. Wells without drugs were used as blanks. The EC50 values were defined as the concentrations that causes the maximum effect of 50%; IC50 values were defined as the concentration of compound which gives 50% growth inhibition, and were calculated using the GraphPad Prism 5. The proliferation rates of damaged SH-SY5Y cells were calculated in the following formula (1): [OD490 (compound) − OD490 (CoCl2)]/[OD490 (NGF) − OD490 (CoCl2)] × 100%(1) The EC50 values were using the equation −pEC50 = log Cmax − log 2 × (ΣP − 0.75 + 0.25Pmax + 0.25Pmin)(2) where Cmax is the maximum concentration, ΣP is the sum of proliferation rates, Pmax is the maximum value of the proliferation rate, and Pmin is the minimum value of the proliferation rate. Cell viability was expressed as a percentage of the control.

[2] = system: H9C2 cells; assay: Toxicity on normal H9C2 cells (MTT assay); assay type: cell-based; details: MTT; for viability at 6.25 µM / viability at 12.5 µM / viability at 25 µM / viability at 50 µM / Survival Rate (%): H9C2 cells; for viability at 6.25 µM / viability at 12.5 µM / viability at 25 µM / viability at 50 µM: read-out: Survival Rate (%); for IC50: normal H9C2 cells
Protocol: To study cytotoxicity on normal cells, the cytotoxicity of compounds against normal H9C2 cells were tested.
as §1, §2
The inhibition rate was calculated in the following equation: % inhibition = 1 − (Sample group OD/Control group OD) × 100%(3)

[3] = system: H9C2 cells; assay: Toxicity on normal H9C2 cells (MTT assay); assay type: cell-based; details: for viability at 100 µM: read-out: Survival Rate (%); for Survival Rate (%): 100 µM

Molecule | viability at 3.125 µM ([1]; Homo sapiens, 3.125 µM) [%] | viability at 6.25 µM ([1]; Homo sapiens, 6.25 µM) [%] | viability at 12.5 µM ([1]; Homo sapiens, 12.5 µM) [%] | viability at 25 µM ([1]; Homo sapiens, 25 µM) [%] | viability at 50 µM ([1]; Homo sapiens, 50 µM) [%] | EC50 ([1]; Homo sapiens) [µM] | viability at 6.25 µM ([2]; 6.25 µM) [%] | viability at 12.5 µM ([2]; 12.5 µM) [%] | viability at 25 µM ([2]; 25 µM) [%] | viability at 50 µM ([2]; 50 µM) [%] | IC50 [2] [µM] | melting point [°C] | viability at 100 µM [3] [%] | other results
CC1=NN(c2ccccc2)C(=O)C1 [Edaravone, reference compound] | 61.4 | 85.8 | 76.1 | 69.9 | 60.7 | 5.62 |  |  |  |  |  |  |  | 
CCC(C)C(NC(=O)OCc1ccccc1)C(=O)Oc1cc2oc(-c3ccccc3)cc(=O)c2c(O)c1O (stereo not shown) [Compound 7, 5,6-dihydroxy-4-oxo-2-phenyl-4H-chromen-7-yl 2-{[(benzyloxy)carbonyl]amino}-3-methyl-pentanoate] | 63.6 | 69.7 | 79.8 | 79.8 | 72.2 | 5.24 | 152 | 147 | 145 | 139 | > 100 | 155.7 | 124 | 
O=C(CC(NC(=O)OCc1ccccc1)C(=O)OCc1ccccc1)Oc1c(O)cc2oc(-c3ccccc3)cc(=O)c2c1O (stereo not shown) [Compound 4, 1-benzyl 5,7-dihydroxy-4-oxo-2-phenyl-4H-chromen-6-yl 2-{[(benzyloxy)carbonyl]amino} butanedioate] | 59.1 | 94.1 | 77.7 | 70.2 | 54.8 | 5.51 | 156 | 140 | 140 | 131 | > 100 | 157.8 | 126 | 
O=c1cc(-c2ccccc2)oc2cc(O)c(O)c(O)c12 [Baicalein, 5,6,7-trihydroxyflavone] | 54.7 | 35.1 | 29.9 | 28.4 | 11.7 | 24.8 | 212 | 198 | 179 | 170 | > 100 |  | 168 | 
5,6-dihydroxy-4-oxo-2-phenyl-chroman-7-yl 2-{[(tert-butoxy)carbonyl]amino}-3-methyl-pentanoate [Compound 10] |  |  |  |  |  |  |  |  |  |  | > 100 |  |  | Proliferation Rate (%) ([1]; 3.125 µM): 75.23%; Proliferation Rate (%) ([1]; 6.25 µM): 77.21%; Proliferation Rate (%) ([1]; 12.5 µM): 79.27%; Proliferation Rate (%) ([1]; 25 µM): 74.55%; Proliferation Rate (%) ([1]; 50 µM): 63.22%; EC50 [1]: 5.07 µM; Survival Rate (%) ([2]; 6.25 µM): 194.73%; Survival Rate (%) ([2]; 12.5 µM): 179.84%; Survival Rate (%) ([2]; 25 µM): 169.33%; Survival Rate (%) ([2]; 50 µM): 152.13%; Survival Rate (%) [3]: 141.70%
CC(NC(=O)OC(C)(C)C)C(=O)Oc1c(O)cc2oc(-c3ccccc3)cc(=O)c2c1O (stereo not shown) [Compound 14, 5,7-dihydroxy-4-oxo-2-phenyl-4H-chromen-6-yl 2-{[(tert-butoxy)carbonyl]amino} propanoate] | 0.35 | 3.34 | 7.09 | 4.09 | 0.1 | 74.9 | 185 | 166 | 137 | 129 | > 100 | 196.7 | 97.1 | 
CC(C)(C)C(NC(=O)OCc1ccccc1)C(=O)Oc1cc2oc(-c3ccccc3)cc(=O)c2c(O)c1OC(=O)C(NC(=O)OCc1ccccc1)C(C)(C)C (stereo not shown) [Compound 2] | 45.1 | 48.2 | 81 | 107 | 94.2 | 4.79 | 213 | 150 | 133 | 112 | > 100 | 195.8 | 108 | 
CC(C)(C)OC(=O)NC(Cc1ccccc1)C(=O)Oc1c(O)cc2oc(-c3ccccc3)cc(=O)c2c1O (stereo not shown) [Compound 6, 5,7-dihydroxy-4-oxo-2-phenyl-4H-chromen-6-yl 2-{[(tert-butoxy)carbonyl]amino}-3-phenylpropanoate] | 8.61 | 20 | 24.8 | 21.6 | 16.7 | 42 | 157 | 154 | 154 | 137 | > 100 |  | 122 | 
1-tert-butyl 2-(5,7-dihydroxy-4-oxo-2-phenyl-chroman-6-yl) pyrrolidine-1,2-dicarboxylate [Compound 11] |  |  |  |  |  |  |  |  |  |  | 95.2 |  |  | Proliferation Rate (%) ([1]; 3.125 µM): 47.94%; Proliferation Rate (%) ([1]; 6.25 µM): 86.25%; Proliferation Rate (%) ([1]; 12.5 µM): 78.16%; Proliferation Rate (%) ([1]; 25 µM): 74.48%; Proliferation Rate (%) ([1]; 50 µM): 64.80%; EC50 [1]: 5.82 µM; Survival Rate (%) ([2]; 6.25 µM): 70.98%; Survival Rate (%) ([2]; 12.5 µM): 67.32%; Survival Rate (%) ([2]; 25 µM): 61.98%; Survival Rate (%) ([2]; 50 µM): 60.67%; Survival Rate (%) [3]: 45.75%
